Data on six compounds can be found in ChEMBL document CHEMBL3046737, “Mode of Action of Cyanohydrins in Insects” (J Pestic Sci, 2005).

Converted amounts (≈) assume the structure as drawn.

Data set [1] concerns Musca domestica. Kind of data set: Drug level in Musca domestica (house fly) at 1000 ug after 24 hr by spectrophotometric method. It counts as ADME, organism-based. The following applies: in vivo.
Data set [2] deals with Musca domestica. Kind of data set: Drug level in Musca domestica (house fly) assessed as cyanide ion level per gram of insect at L99 treated as fumigation after 24 hr by spectrophotometric method. It is filed as ADME, organism-based. As to conditions: in vivo, inhaled_or_intranasal.
Data set [3] deals with Rhyzopertha dominica. Kind of data set: Drug level in Rhyzopertha dominica assessed as cyanide ion level per gram of insect at L99 treated as fumigation after 24 hr by spectrophotometric method. The following applies: in vivo, other. It counts as ADME, organism-based.
Data set [4] has as its system Musca domestica. The data set is described as follows: Drug level in Musca domestica (house fly) assessed as cyanide ion level per gram of insect at L99 treated topically after 24 hr by spectrophotometric method. It is filed as ADME, organism-based. The following applies: in vivo, topical_or_ocular.
The test system of data set [5] is Rhyzopertha dominica. Kind of data set: Insecticidal activity against Rhyzopertha dominica after 24 hr. It is filed as functional.
The test system of data set [6] is Musca domestica. Kind of data set: Insecticidal activity against Musca domestica (house fly) after 24 hr. It is filed as functional.

Turning to `C=CC(O)C#N` (centres undefined), the Drug uptake in the data set on Musca domestica [1] worked out at 53%; in the data set with Musca domestica [2], 38 ppm; in the data set with Rhyzopertha dominica [3], 35 ppm; with Musca domestica [4] it was 52 ppm. Besides, the LC50 in the data set with Rhyzopertha dominica [5] came to 0.37 µg/mL (≈ 4.45 µM); in the data set with Musca domestica [6], 0.056 µg/mL (≈ 0.674 µM).

Take `C=CC(C#N)OC(C)=O` (centres undefined) [1-CYANOALLYL ACETATE]: the Drug uptake was 53% in the data set on Musca domestica [1], 39 ppm in the data set with Musca domestica [2], 33 ppm in the data set on Rhyzopertha dominica [3] and 54 ppm in the data set on Musca domestica [4]. Besides, the LC50 in the data set on Rhyzopertha dominica [5] was 0.37 µg/mL; with Musca domestica [6], 0.26 µg/mL.

On to `CCC(Cl)Cl` [DICHLOROPROPANE], for which the 50% lethal concentration (LC50) in the data set with Rhyzopertha dominica [5] was found to be 5.47 µg/mL (≈ 48.4 µM); with Musca domestica [6], 0.9 µg/mL (≈ 7.97 µM).

On to `COP(=O)(OC)OC=C(Cl)Cl` [DICHLORVOS], for which the LC50 was 0.29 µg/mL (≈ 1.31 µM) in the data set on Rhyzopertha dominica [5] and 0.011 µg/mL (≈ 0.0498 µM) with Musca domestica [6].

With `CC(C)(O)C#N` [DIMETHYLKETONE CYANOHYDRIN], the Drug uptake worked out at 53% in the data set with Musca domestica [1], 48 ppm in the data set with Musca domestica [2], 43 ppm with Rhyzopertha dominica [3] and 56 ppm in the data set on Musca domestica [4]. The LC50 came out at 0.4 µg/mL (≈ 4.7 µM) in the data set with Rhyzopertha dominica [5] and 0.07 µg/mL (≈ 0.823 µM) in the data set on Musca domestica [6].

As to `CCC(C)(O)C#N` (centres undefined) [METHYLETHYL KETONE CYANOHYDRIN], the LC50 came out at 0.41 µg/mL (≈ 4.14 µM) in the data set on Rhyzopertha dominica [5] and 0.09 µg/mL (≈ 0.908 µM) in the data set with Musca domestica [6].
